Measured values from patent EP0652220A1, “CEPHALOSPORIN DERIVATIVE” (TAISHO PHARMACEUTICAL CO. LTD, priority 1992, dated 1994).

Tests used:
[1] = system: Eschelichia coli NIHJ JC-2; assay: antibacterial test, agar plate dilution method; type: cell-based; settings: inoculum size 10⁶ cells/ml
Procedure: (§1) The antibacterial test against various bacteria was carried out by the agar plate dilution method (inoculum size : 10⁶ cells/ml), and the results are shown in the following Table 1.

[2] = system: Morganella morganii IID 602; assay: antibacterial test, agar plate dilution method; type: cell-based; settings: inoculum size 10⁶ cells/ml
Procedure: as §1

[3] = system: Serratia marcescens IID 618; assay: antibacterial test, agar plate dilution method; type: cell-based; settings: inoculum size 10⁶ cells/ml
Procedure: as §1

[4] = system: Staphylococcus aureus 209P-JP; assay: antibacterial test, agar plate dilution method; type: cell-based; settings: inoculum size 10⁶ cells/ml
Procedure: as §1

[5] = system: Proteus mirabilis IFO 3849; assay: antibacterial test, agar plate dilution method; type: cell-based; settings: inoculum size 10⁶ cells/ml
Procedure: as §1

[6] = system: Klebsiella pneumoniae IFO 3317; assay: antibacterial test, agar plate dilution method; type: cell-based; settings: inoculum size 10⁶ cells/ml
Procedure: as §1

[7] = system: Enterococcus faecalis CSJ 1212; assay: antibacterial test, agar plate dilution method; type: cell-based; settings: inoculum size 10⁶ cells/ml
Procedure: as §1

[8] = system: Haemophilus influenzae ATCC 19418; assay: antibacterial test, agar plate dilution method; type: cell-based; settings: inoculum size 10⁶ cells/ml
Procedure: as §1

[9] = system: Staphylococcus epidermidis sp-al-1; assay: antibacterial test, agar plate dilution method; type: cell-based; settings: inoculum size 10⁶ cells/ml
Procedure: as §1

[10] = concentration of the drug in blood after oral administration to mice; type: in vivo, male ICR strain mice; design: unit not given here; settings: 20 mg/kg suspended in 5% gum arabic, bioassay (Bacillus cereus S1101)
Procedure: Three male ICR strain mice (4 weeks old) for each group were administered orally with the test drug, and the change of the concentration of the drug in blood was measured with the lapse of time. Dose of drug: 20 mg/kg (suspended in 5% gum arabic) Quantitative method: Bioassay method (test bacteria: Bacillus cereus S1101)

[11] = mortality after a single intraperitoneal dose in mice; type: in vivo, male ICR strain mice; settings: single dose 4,000 mg/kg intraperitoneal, 50 ml/kg (saline), 3 mice per group, observation for 14 days
Procedure: The mortality after a single dose of the test drug was measured using 3 male ICR strain mice (4 weeks old) for each group. Administration route : intraperitoneal Administration volume : 50 ml/kg (saline) Dose : 4,000 mg/kg Observation period : for 14 days after the administration The results are shown in Table 3.

SMILES	antibacterial activity [1]	antibacterial activity [2]	antibacterial activity [3]	antibacterial activity [4]	antibacterial activity [5]	antibacterial activity [6]	antibacterial activity [7]	antibacterial activity [8]	antibacterial activity [9]	concentration of the drug in blood ([10]; 0.25 hour after administration)	concentration of the drug in blood ([10]; 0.5 hour after administration)	concentration of the drug in blood ([10]; 1.0 hour after administration)	concentration of the drug in blood ([10]; 2.0 hour after administration)	concentration of the drug in blood ([10]; 4.0 hour after administration)	Mortality [11]
C=CC1=C(C(=O)O)N2C(=O)[C@@H](NC(=O)/C(=N\O)c3csc(N)n3)[C@H]2SC1 [C, Cefnidir]	0.39	0.78	0.78	0.39	0.20	0.10	1.56	0.39	0.39	1.8	2.0	2.5	1.2	0.1	
C=CCSC1=C(C(=O)[O-])N2C(=O)[C@@H](NC(=O)/C(=N\O)c3csc(N)n3)[C@H]2SC1.[Na+] [D, 7β-{2-(2-aminothiazol-4-yl)-2-[(Z)-hydroxyimino]acetamido}-3-allylthio-3-cephem-4-carboxylic acid sodium salt]	0.39	0.20	1.56	0.20	0.20	0.20	3.13	0.39	0.20						2/3
C#CCSC1=C(C(=O)OCOC(=O)C(C)(C)C)N2C(=O)[C@@H](NC(=O)/C(=N\O)c3csc(N)n3)[C@H]2SC1 [E, pivaloyloxymethyl 7β-{2-(2-aminothiazol-4-yl)-2-[(Z)-hydroxyimino]acetamido}-3-(2-propynyl)thio-3-cephem-4-carboxylate]										14.0	18.4	15.4	8.4	4.0	
C=CC1=C(C(=O)O)N2C(=O)[C@@H](NC(=O)/C(=N\OCC(=O)O)c3csc(N)n3)[C@H]2SC1 [B, Cefixime]	0.39	0.20	0.20	25	0.025	0.025	>100	0.05	25						
C#CCSC1=C(C(=O)[O-])N2C(=O)[C@@H](NC(=O)/C(=N\O)c3csc(N)n3)[C@H]2SC1.[Na+] [A, 7β-{2-(2-aminothiazol-4-yl)-2-[(Z)-hydroxyimino]-acetamido}-3-(2-propynyl)thio-3-cephem-4-carboxylic acid sodium salt]	0.20	0.10	0.78	0.20	0.10	0.05	1.56	0.20	0.20						0/3
